According to patent publication US20220243210A1, “ANGIOTENSIN II TYPE 1 RECEPTOR TARGETED OLIGONUCLEOTIDES AND USES THEREOF” (Ionis Pharmaceuticals, Inc., priority 2019, published 2022):

Biological target: T1, human AGTR1 (Homo sapiens, UniProt P30556)
T1 construct: host or cells: HEK293 (HEK-AGTR1 FAP cells)
T1 sequence (P30556 1-359): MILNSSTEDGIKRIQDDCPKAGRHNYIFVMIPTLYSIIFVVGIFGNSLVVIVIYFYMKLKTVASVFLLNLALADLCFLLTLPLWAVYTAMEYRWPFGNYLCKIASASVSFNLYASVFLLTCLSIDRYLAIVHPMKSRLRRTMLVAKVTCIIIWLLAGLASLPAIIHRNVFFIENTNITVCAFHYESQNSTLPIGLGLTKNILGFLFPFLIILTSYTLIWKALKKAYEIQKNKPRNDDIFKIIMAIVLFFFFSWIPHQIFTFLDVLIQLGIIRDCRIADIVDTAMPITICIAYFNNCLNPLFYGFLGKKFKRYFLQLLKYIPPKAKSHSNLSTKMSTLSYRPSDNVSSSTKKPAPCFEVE
Experiment: AGTR1 signaling, IP-One Gq kit (IP1 accumulation), HEK-AGTR1 FAP cells
Format: cell-based
Settings: 90 minutes
Procedure: Activated AGTR1 couples to the Gαq subunit of heterotrimeric G proteins, which activates the phospholipase C (PLC) and subsequently inositol 1,4,5-trisphosphate (IP3) signaling cascade. AGTR1 signaling was measured using an IP-One Gq kit (cisbio #62IPAPEB). The kit detects the accumulation of inositol monophosphate (IP1), a stable downstream metabolite of IP3 induced by activation of a phospholipase C (PLC) cascade.
An additional control compound, AngII, which consists of the peptide motif […], was also tested. […] AGTR1 activation was measured using the IP-One Gq kit.

AngII
IP1 accumulation (0.0256 nM): 1.183 µM
IP1 accumulation (0.128 nM): 2.569 µM
IP1 accumulation (0.64 nM): 1.71 µM
IP1 accumulation (3.2 nM): 4.465 µM
IP1 accumulation (16 nM): 8.913 µM
IP1 accumulation (80 nM): 15.383 µM
IP1 accumulation (400 nM): 13.89 µM
IP1 accumulation (2000 nM): 14.825 µM
